{"source": "the NIST ThermoML archive (doi:10.1016/j.jct.2012.09.031)", "key": {"[1]": {"assay": "molar enthalpy of vaporization or sublimation", "conditions": "298.15 K; Crystal; Static calorimetry"}, "[2]": {"conditions": "Crystal, Calculated from knudsen effusion weight loss"}}, "note": "Where “and” joins values, the source holds several entries; their conditions need not be identical. Equal values may be shown once. Numbers after ± are expanded uncertainties."}
{"smiles": "O=[N+]([O-])c1ccccc1I", "note": "[1-iodo-2-nitrobenzene]", "values": [{"measurement": "molar enthalpy", "setting": "[1]", "result": "21.5 ± 0.765", "unit": "kcal/mol"}, {"measurement": "vapor or sublimation pressure", "setting": "[2]; 287.15 K", "result": "8.2e-05 ± 2e-05 kPa and 8.5e-05 ± 2e-05 kPa"}, {"measurement": "vapor or sublimation pressure", "setting": "[2]; 289.14 K", "result": "0.000107 ± 2e-05 kPa and 0.000103 ± 2e-05 kPa"}, {"measurement": "vapor or sublimation pressure", "setting": "[2]; 291.13 K", "result": "0.000139 ± 2.1e-05 kPa and 0.000141 ± 2.1e-05 kPa and 0.000135 ± 2.1e-05 kPa"}, {"measurement": "vapor or sublimation pressure", "setting": "[2]; 293.14 K", "result": "0.000175 ± 2.1e-05 kPa and 0.000178 ± 2.1e-05 kPa and 0.000184 ± 2.1e-05 kPa"}, {"measurement": "vapor or sublimation pressure", "setting": "[2]; 295.15 K", "result": "0.000224 ± 2.2e-05 kPa and 0.000226 ± 2.2e-05 kPa and 0.00023 ± 2.2e-05 kPa"}, {"measurement": "vapor or sublimation pressure", "setting": "[2]; 297.14 K", "result": "0.000283 ± 2.2e-05 kPa and 0.000289 ± 2.2e-05 kPa and 0.000288 ± 2.2e-05 kPa"}, {"measurement": "vapor or sublimation pressure", "setting": "[2]; 299.14 K", "result": "0.000373 ± 2.4e-05 kPa and 0.000375 ± 2.4e-05 kPa and 0.000374 ± 2.4e-05 kPa"}, {"measurement": "vapor or sublimation pressure", "setting": "[2]; 301.14 K", "result": "0.000458 ± 2.6e-05 kPa and 0.000466 ± 2.6e-05 kPa and 0.000479 ± 2.6e-05 kPa"}, {"measurement": "vapor or sublimation pressure", "setting": "[2]; 303.13 K", "result": "0.000609 ± 2.9e-05 kPa and 0.000616 ± 3e-05 kPa"}, {"measurement": "vapor or sublimation pressure", "setting": "[2]; 305.14 K", "result": "0.000767 ± 3.4e-05 kPa and 0.000768 ± 3.4e-05 kPa and 0.000777 ± 3.4e-05 kPa"}, {"measurement": "vapor or sublimation pressure", "setting": "[2]; 307.14 K", "result": "0.000974 ± 4e-05 kPa and 0.000975 ± 4e-05 kPa and 0.000998 ± 4.1e-05 kPa"}]}
{"smiles": "O=[N+]([O-])c1cccc(I)c1", "note": "[1-iodo-3-nitrobenzene]", "values": [{"measurement": "molar enthalpy", "setting": "[1]", "result": "21.4 ± 0.717", "unit": "kcal/mol"}, {"measurement": "vapor or sublimation pressure", "setting": "[2]; 287.14 K", "result": "0.000148 ± 2.1e-05 kPa and 0.000145 ± 2.1e-05 kPa"}, {"measurement": "vapor or sublimation pressure", "setting": "[2]; 289.15 K", "result": "0.000187 ± 2.1e-05 kPa and 0.000191 ± 2.1e-05 kPa"}, {"measurement": "vapor or sublimation pressure", "setting": "[2]; 291.13 K", "result": "0.000238 ± 2.2e-05", "unit": "kPa"}, {"measurement": "vapor or sublimation pressure", "setting": "[2]; 293.13 K", "result": "0.000309 ± 2.3e-05 kPa and 0.000314 ± 2.3e-05 kPa"}, {"measurement": "vapor or sublimation pressure", "setting": "[2]; 295.15 K", "result": "0.000392 ± 2.4e-05 kPa and 0.0004 ± 2.5e-05 kPa"}, {"measurement": "vapor or sublimation pressure", "setting": "[2]; 297.14 K", "result": "0.000508 ± 2.7e-05 kPa and 0.000506 ± 2.7e-05 kPa"}, {"measurement": "vapor or sublimation pressure", "setting": "[2]; 299.14 K", "result": "0.000641 ± 3e-05 kPa and 0.000643 ± 3e-05 kPa"}, {"measurement": "vapor or sublimation pressure", "setting": "[2]; 301.14 K", "result": "0.000812 ± 3.5e-05", "unit": "kPa"}, {"measurement": "vapor or sublimation pressure", "setting": "[2]; 303.13 K", "result": "0.001033 ± 8.1e-05 kPa and 0.001074 ± 8.5e-05 kPa"}]}
{"smiles": "O=[N+]([O-])c1ccc(I)cc1", "note": "[1-iodo-4-nitrobenzene]", "values": [{"measurement": "molar enthalpy", "setting": "[1]", "result": "23.5 ± 0.813", "unit": "kcal/mol"}, {"measurement": "vapor or sublimation pressure", "setting": "[2]; 311.18 K", "result": "9.7e-05 ± 2e-05 kPa and 9.4e-05 ± 2e-05 kPa and 9.3e-05 ± 2e-05 kPa"}, {"measurement": "vapor or sublimation pressure", "setting": "[2]; 313.17 K", "result": "0.000121 ± 2e-05 kPa and 0.000114 ± 2e-05 kPa and 0.000118 ± 2e-05 kPa"}, {"measurement": "vapor or sublimation pressure", "setting": "[2]; 315.11 K", "result": "0.000151 ± 2.1e-05 kPa and 0.00015 ± 2.1e-05 kPa and 0.000152 ± 2.1e-05 kPa"}, {"measurement": "vapor or sublimation pressure", "setting": "[2]; 317.18 K", "result": "0.000179 ± 2.1e-05 kPa and 0.000193 ± 2.1e-05 kPa"}, {"measurement": "vapor or sublimation pressure", "setting": "[2]; 319.13 K", "result": "0.00023 ± 2.2e-05 kPa and 0.000226 ± 2.2e-05 kPa"}, {"measurement": "vapor or sublimation pressure", "setting": "[2]; 321.1 K", "result": "0.000282 ± 2.2e-05 kPa and 0.000277 ± 2.2e-05 kPa and 0.000283 ± 2.2e-05 kPa"}, {"measurement": "vapor or sublimation pressure", "setting": "[2]; 323.18 K", "result": "0.000355 ± 2.4e-05 kPa and 0.000354 ± 2.4e-05 kPa and 0.000359 ± 2.4e-05 kPa"}, {"measurement": "vapor or sublimation pressure", "setting": "[2]; 325.18 K", "result": "0.000451 ± 2.6e-05 kPa and 0.000436 ± 2.5e-05 kPa and 0.000455 ± 2.6e-05 kPa"}, {"measurement": "vapor or sublimation pressure", "setting": "[2]; 327.12 K", "result": "0.00055 ± 2.8e-05 kPa and 0.000546 ± 2.8e-05 kPa and 0.000552 ± 2.8e-05 kPa"}, {"measurement": "vapor or sublimation pressure", "setting": "[2]; 329.18 K", "result": "0.000672 ± 3.1e-05 kPa and 0.000673 ± 3.1e-05 kPa"}, {"measurement": "vapor or sublimation pressure", "setting": "[2]; 331.18 K", "result": "0.000856 ± 3.6e-05 kPa and 0.00083 ± 3.6e-05 kPa and 0.000857 ± 3.6e-05 kPa"}, {"measurement": "vapor or sublimation pressure", "setting": "[2]; 333.11 K", "result": "0.001045 ± 8.2e-05 kPa and 0.001036 ± 8.1e-05 kPa and 0.001018 ± 7.9e-05 kPa"}]}
